The source of these data is patent US5449662A, “Atrial natriuretic peptide clearance inhibitors which resist degradation” (Scios Nova Inc., priority 1992, dated 1995).

The target of assay [1] is T1, ANP clearance receptor on bovine aortic smooth muscle (BASM) cells (Bos taurus, UniProt P10730).
T1 construct: endogenous in cells; host or cells: bovine aortic smooth muscle (BASM) cells
T1 sequence (P10730 42-537): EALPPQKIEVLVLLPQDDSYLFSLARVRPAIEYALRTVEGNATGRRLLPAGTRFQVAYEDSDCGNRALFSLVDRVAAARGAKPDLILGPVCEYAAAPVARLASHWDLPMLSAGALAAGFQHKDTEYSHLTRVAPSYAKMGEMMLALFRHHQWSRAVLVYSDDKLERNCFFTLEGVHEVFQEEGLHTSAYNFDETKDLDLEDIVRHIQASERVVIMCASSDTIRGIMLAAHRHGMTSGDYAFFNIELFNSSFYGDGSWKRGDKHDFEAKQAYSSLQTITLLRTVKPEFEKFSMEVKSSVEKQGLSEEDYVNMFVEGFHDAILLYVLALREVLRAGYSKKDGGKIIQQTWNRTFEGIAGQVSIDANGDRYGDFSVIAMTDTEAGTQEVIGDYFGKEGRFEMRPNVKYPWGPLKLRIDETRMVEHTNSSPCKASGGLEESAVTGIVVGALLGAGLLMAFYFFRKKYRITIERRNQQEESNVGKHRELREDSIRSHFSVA
The experiment in a line: BASM receptor binding assay (competition with I125 labeled rANP(102-126)). The note with it: read-out: Ki(app). An excerpt:
(§1) The assay systems used are adapted from those of Schenk, D. B., et al, Biochem Biophys Res Commun (1985) 127:433-442 and Scarborough, R. M., J Biol Chem (1986) 261:12960-12964. These assays measure clearance receptor binding affinity through competition with ANP using the receptors on bovine aortic smooth muscle (BASM) or bovine aortic endothelial (BAE) cells. Also employed is the receptor binding affinity assay for the clearance receptor in isolated perfused rat kidney as described by Maack, T., et al, Science (1987) 238:675-679.

The next assay has as its target T2, Endopeptidase 24.11 (Rattus norvegicus, UniProt P07861).
T2 construct: rat urine was collected and desalted on Sephadex G-25; from tissue; host or cells: rat urine, desalted on Sephadex G-25
T2 sequence (P07861 1-750): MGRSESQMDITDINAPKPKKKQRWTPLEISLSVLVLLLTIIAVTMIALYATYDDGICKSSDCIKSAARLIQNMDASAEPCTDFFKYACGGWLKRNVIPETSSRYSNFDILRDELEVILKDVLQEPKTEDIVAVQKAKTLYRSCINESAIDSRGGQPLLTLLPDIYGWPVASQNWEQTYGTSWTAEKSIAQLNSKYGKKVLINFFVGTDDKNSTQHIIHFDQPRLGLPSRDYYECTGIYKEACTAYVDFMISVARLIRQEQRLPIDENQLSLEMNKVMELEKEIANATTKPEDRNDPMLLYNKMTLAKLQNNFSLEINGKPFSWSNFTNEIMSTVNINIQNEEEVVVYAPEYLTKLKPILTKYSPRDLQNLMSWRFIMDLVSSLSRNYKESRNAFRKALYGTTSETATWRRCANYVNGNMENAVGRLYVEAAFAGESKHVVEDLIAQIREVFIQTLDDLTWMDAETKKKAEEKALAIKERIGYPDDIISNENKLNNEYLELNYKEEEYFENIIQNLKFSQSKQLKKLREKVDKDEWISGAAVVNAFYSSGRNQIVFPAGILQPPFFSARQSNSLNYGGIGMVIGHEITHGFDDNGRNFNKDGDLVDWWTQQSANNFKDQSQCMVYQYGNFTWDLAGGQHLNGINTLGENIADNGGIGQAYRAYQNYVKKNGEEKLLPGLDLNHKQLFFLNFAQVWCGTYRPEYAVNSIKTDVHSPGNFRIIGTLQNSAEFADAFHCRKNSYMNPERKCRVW
Briefly: Inhibition of endopeptidase 24.11 (cleavage of rANP(99-126), HPLC). Format: biochemical. The note with it: for inhibition at 0.02 µM: 20 nM; for inhibition at 0.02 µM / inhibition at 0.1 µM / inhibition at 1 µM / inhibition at 10 µM: read-out: % Inhibition of Metabolite Formation; for inhibition at 0.1 µM: 100 nM. The method, then: Endopeptidase 24.11 inactivates ANP by cleavage at the Cys^105 -Phe^106 amide bond. The ability of the compounds of the invention to inhibit this degradation was assayed by a modification of the procedure of Ura, N., et al, Kidney Int (1987) 32:507-513 by substituting rANP(99-126) for bradykinin as a substrate.
Briefly, rat urine was collected and desalted on Sephadex G-25 as described by Ura (supra) and 4 ul of sample in 100 ul 0.1M Tris buffer, pH 7.2 containing aminopeptidase inhibitor bestatin (10 ug/ml), potato tuber carboxy peptidase inhibitor (10 ug/ml) and aprotinin (5,000 kalikrein inhibitory unit/ml) were incubated for 15 min at 37° C. The assay was then initiated by addition of 2-10 ug rANP(99-126) to a final volume of 0.5 ml and incubated at 10-20 min at 37° C. Termination of the reaction was accomplished by boiling, spinning and freezing.
Compounds to be tested for their ability to inhibit the endopeptidase were added to the preincubation mixture 15 min before addition of substrate.
The frozen samples, incubated with or without inhibitor, were thawed and analyzed by HPLC to determine the concentration of starting rANP(99-126) and its degradation product. HPLC analysis was conducted on Vydac C18 reverse phase HPLC column (4.6 mm ID×12.5 cm; 5 uM, 300A). A linear gradient of 15-35% acetonitrile containing 0.1% TFA was run at 1.0 ml/min on a Perkin-Elmer series 4 HPLC system. The effluent was monitored at 220 nm and the peptide peak heights measured.
The results were computed as the percent of the Cys^105 -Phe^106 cleavage metabolite peak in the test sample as compared to the peak height for this metabolite in the control.

Assay [2] addresses T3, clearance receptor in isolated perfused rat kidney (Rattus norvegicus, UniProt P41740).
T3 construct: the clearance receptor in isolated perfused rat kidney; from tissue; host or cells: isolated perfused rat kidney
T3 sequence (P41740 41-535): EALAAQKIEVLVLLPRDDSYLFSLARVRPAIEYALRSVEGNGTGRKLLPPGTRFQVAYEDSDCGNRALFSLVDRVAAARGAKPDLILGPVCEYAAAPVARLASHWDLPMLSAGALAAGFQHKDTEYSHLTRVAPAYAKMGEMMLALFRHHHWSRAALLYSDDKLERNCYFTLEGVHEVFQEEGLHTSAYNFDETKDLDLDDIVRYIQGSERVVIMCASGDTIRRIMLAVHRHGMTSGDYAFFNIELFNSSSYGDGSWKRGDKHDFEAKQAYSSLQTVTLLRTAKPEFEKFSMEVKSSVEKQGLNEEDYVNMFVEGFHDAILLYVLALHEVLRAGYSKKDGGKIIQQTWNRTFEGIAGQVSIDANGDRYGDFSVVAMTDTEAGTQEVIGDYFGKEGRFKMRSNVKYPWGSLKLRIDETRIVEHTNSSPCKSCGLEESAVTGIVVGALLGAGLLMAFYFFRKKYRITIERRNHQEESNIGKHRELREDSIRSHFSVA
The experiment in a line: Rat kidney receptor binding assay (isolated perfused rat kidney). The note with it: labeled compound 4 × 10^-12 M + competitor 1 × 10^-6 M; n = 2.
Source text: as §1
In the rat kidney receptor binding assay, the native 28-residue labeled ANP was used: I^125 labeled rANP(99-126), with the label linked to tyrosine at 126. The results of this assay are shown in Table 2 as the ratio of bound-to-free labeled rANP(99-126) in the presence and absence of competing compound.

Numbered stars: 1 amine (or outer) side, 2 acyl side, 3 side chain; on linkers, the order of the positions; unused ones are H or OH. Square brackets hold non-standard residues; d marks the D form. Peptide text beside a SMILES is read from it. * marks the point of attachment. X4 = O=C(NO)C(Cc1ccccc1)N(CC(=O)[*:2])[*:1]; γGlu = O=C(O)[C@H](CCC(=O)[*:2])N[*:1]; X2 = O=C(Cc1ccc(N[*:1])cc1)[*:2]; X3 = O=C(O)C(Cc1ccccc1)NCCC(=O)*; X1 = O=C(C(CS)Cc1ccccc1)*

For the compound `CC[C@H](C)[C@H](NC(=O)[C@H](CCCNC(=N)N)NC(=O)[C@H](CC(=O)O)NC(=O)[C@@H](NC(=O)[C@H](CCCNC(=N)N)NC(=O)CNC(=O)CNC(=O)C(CS)Cc1ccccc1)[C@@H](C)CC)C(N)=O` (stereo partly drawn) [Analog 1, MBP-G-G-R-I-D-R-I-NH2] (X1-GGRIDRI-NH2), the Ki in assay [1] was determined as 19.6 nM. On Endopeptidase 24.11, the inhibition at 0.02 µM amounted to 0%, the inhibition at 0.1 µM turned out to be 23%, the inhibition at 1 µM amounted to 45% and the inhibition at 10 µM is 92%. For the same compound, the IC50 at Endopeptidase 24.11 (approximate, from Table 3, read-out: ED50 of inhibition) is ~1000 nM.
Take `CC[C@H](C)[C@H](NC(=O)[C@H](CCCNC(=N)N)NC(=O)[C@H](CC(=O)O)NC(=O)[C@@H](NC(=O)[C@H](CCCNC(=N)N)NC(=O)CNC(=O)[C@H](CC(=O)O)NC(=O)C(CS)Cc1ccccc1)[C@@H](C)CC)C(N)=O` (stereo partly shown) [Analog 12] (X1-DGRIDRI-NH2): the Ki in assay [1] was 207 nM.
Same read-out and setting: as for `CC[C@H](C)[C@H](NC(=O)[C@H](CCCNC(=N)N)NC(=O)[C@H](CC(=O)O)NC(=O)[C@@H](NC(=O)[C@H](CCCNC(=N)N)NC(=O)CNC(=O)[C@@H](CC(=O)O)NC(=O)C(CS)Cc1ccccc1)[C@@H](C)CC)C(N)=O` (stereo partly shown) [Analog 23] (X1-[dD]GRIDRI-NH2), the figure is 115 nM; as for `CC[C@H](C)[C@H](NC(=O)[C@H](CCCNC(=N)N)NC(=O)[C@H](CC(=O)O)NC(=O)[C@@H](NC(=O)[C@H](CCCNC(=N)N)NC(=O)CC[C@H](NC(=O)C(CS)Cc1ccccc1)C(=O)O)[C@@H](C)CC)C(N)=O` (stereo partly shown) [Analog 78] ({X1-γGlu}-RIDRI-NH2), 202 nM.
As for `CC[C@H](C)[C@H](NC(=O)[C@H](CCCNC(=N)N)NC(=O)[C@H](CC(=O)O)NC(=O)[C@@H](NC(=O)[C@H](CCCNC(=N)N)NC(=O)Cc1ccc(NC(=O)C(CS)Cc2ccccc2)cc1)[C@@H](C)CC)C(N)=O` (stereo partly drawn) [Analog 122, MBP-4-APA--R--I--D--R--I--NH2] (X1-[X2]RIDRI-NH2), in assay [1], the Ki worked out at 10.9 nM. On Endopeptidase 24.11, the inhibition at 0.02 µM was 12%, the inhibition at 0.1 µM was found to be 25%, the inhibition at 1 µM amounted to 72% and the inhibition at 10 µM is 97%.
Regarding `CC[C@H](C)[C@H](NC(=O)[C@H](CCCNC(=N)N)NC(=O)[C@H](CC(=O)O)NC(=O)[C@@H](NC(=O)[C@H](CCCNC(=N)N)NC(=O)CNC(=O)CNC(Cc1ccccc1)C(=O)O)[C@@H](C)CC)C(N)=O` (stereo partly shown) [Analog 364], the Ki in assay [1] amounted to 66.9 nM.
Same read-out and setting: the figure for `CC[C@H](C)[C@H](NC(=O)[C@H](CCCNC(=N)N)NC(=O)[C@H](CC(=O)O)NC(=O)[C@@H](NC(=O)[C@H](CCCNC(=N)N)NC(=O)CNC(=O)CCNC(Cc1ccccc1)C(=O)O)[C@@H](C)CC)C(N)=O` (stereo partly shown) [Analog 427] (X3-GRIDRI-NH2) is 11.5 nM.
Same read-out and setting: as for `CC[C@H](C)[C@H](NC(=O)[C@H](CCCNC(=N)N)NC(=O)[C@H](CC(=O)O)NC(=O)[C@@H](NC(=O)[C@H](CCCNC(=N)N)NC(=O)CNC(=O)CNC(=O)[C@H](Cc1ccccc1)NC(Cc1ccccc1)C(=O)O)[C@@H](C)CC)C(N)=O` (stereo partly shown) [Analog 436], the figure is 27.3 nM.
For `CC[C@H](C)[C@H](NC(=O)[C@H](CCCNC(=N)N)NC(=O)[C@H](CC(=O)O)NC(=O)[C@@H](NC(=O)[C@H](CCCNC(=N)N)NC(=O)Cc1ccc(NC(=O)[C@H](Cc2ccccc2)NC(Cc2ccccc2)C(=O)O)cc1)[C@@H](C)CC)C(N)=O` (stereo partly drawn) [Analog 445, F[N]F-4-APA-R-I-D-R-I-NH2], the Ki in assay [1] came to 6.5 nM. The inhibition at 10 µM at Endopeptidase 24.11 came out at 0%.
Turning to `CC[C@H](C)[C@H](NC(=O)[C@H](CCCNC(=N)N)NC(=O)[C@H](CC(=O)O)NC(=O)[C@@H](NC(=O)[C@H](CCCNC(=N)N)NC(=O)CNC(=O)[C@H](CC(=O)O)NC(=O)[C@H](Cc1ccccc1)NC(Cc1ccccc1)C(=O)O)[C@@H](C)CC)C(N)=O` (stereo partly shown) [Analog 463], the Ki in assay [1] turned out to be 225 nM.
Still for that read-out and setting: the figure for `CC[C@H](C)[C@H](NC(=O)[C@H](CCCNC(=N)N)NC(=O)[C@H](CC(=O)O)NC(=O)[C@@H](NC(=O)[C@H](CCCNC(=N)N)NC(=O)CC[C@H](NC(=O)[C@H](Cc1ccccc1)NC(CCc1ccccc1)C(=O)O)C(=O)O)[C@@H](C)CC)C(N)=O` (stereo partly shown) [Analog 544] is 58.2 nM.
The same measure, in the same setting: the figure for `CC[C@H](C)[C@H](NC(=O)[C@H](CCCNC(=N)N)NC(=O)[C@H](CC(=O)O)NC(=O)[C@@H](NC(=O)[C@H](CCCNC(=N)N)NC(=O)CNC(=O)CNC(Cc1ccccc1)C(=O)NO)[C@@H](C)CC)C(N)=O` (stereo partly shown) [Analog 702] (H-[X4]GRIDRI-NH2) is 4.6 nM.
Regarding `CC(C)C[C@H](NP(=O)(O)O[C@@H]1O[C@@H](C)[C@H](O)[C@@H](O)[C@H]1O)C(=O)N[C@@H](Cc1c[nH]c2ccccc12)C(=O)O` [Phosphoramidon, phosphoramidon, reference compound], at Endopeptidase 24.11, the inhibition at 0.02 µM worked out at 0%, the inhibition at 0.1 µM was found to be 30%, the inhibition at 1 µM came out at 80% and the inhibition at 10 µM stood at 97%.
The matching figures for `O=C(O)CNC(=O)C(CS)Cc1ccccc1` (stereo not shown) [Thiorphan, thiorphan, reference compound]: 12%, 53%, 67% and 92%.
Turning to “F--[N]--F--G--G--R--I--D--R--I--NH2 [Analog 436]”, the “Ratio of Bound/Free (125I)rANP(99-126), Whole Kidney” value in assay [2] is listed as 1.31.
